Results from patent publication US20180312493A1, “Antibiotic Compounds, Pharmaceutical Formulations Thereof And Methods And Uses Therefor” (Simon Fraser University, priority 2015, published 2018).
pIC50: −log10 of the molar value. Values after ≈ are worked out from the molar mass of the structure shown. Like-named read-outs stand apart in the source and are kept apart here.

How the values were obtained:
[1] = target: T1, MRSA Pyk (Staphylococcus aureus, UniProt Q6GG09); experiment: MRSA pyruvate kinase (PK) activity, continuous LDH-coupled assay; format: biochemical, methicillin resistant S. aureus (MRSA252)
T1 construct: made in house; host or cells: E. coli BL-21 (DE3)
Summary of the method: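 His-tagged MRSA PK (strain Sanger 252) and human PK isoforms expressed in E. coli BL-21 (DE3) and Ni-NTA purified, used at 15 nM in an LDH-coupled assay following NADH oxidation at 340 nm, 30° C, up to 5 min, ≤1% DMSO. IC50 from four-parameter variable-slope fit; Ki with PEP 2-20 mM, ADP fixed 2 mM, inhibitor 0-400 nM.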

[2] = system: S. aureus (ATCC29213); experiment: In vitro susceptibility, broth microdilution (MIC); format: cell-based; conditions: Staphylococcus aureus; S. aureus ATCC29213; 18-24 h, 37 C; read-out: Antimicrobial activity (MIC) S. aureus ATCC29213
Summary of the method: (§1)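 CLSI 2-fold serial broth microdilution; K. pneumoniae C238 grown in L-broth, S. aureus ATCC 29213 in Mueller Hinton broth, plates incubated 18–24 h at 37 °C. MIC taken as lowest concentration giving complete growth inhibition by OD600 versus compound-free wells, background-subtracted.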

[3] = system: MRSA (ATCC BAA-1762); experiment: In vitro susceptibility, broth microdilution (MIC); format: cell-based, methicillin resistant S. aureus; conditions: Staphylococcus aureus; MRSA ATCC BAA-1762; read-out: Antimicrobial activity (MIC) MRSA ATCC BAA1762
Summary of the method: (§2)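 MIC determined by CLSI 2-fold broth microdilution in cation-adjusted Mueller–Hinton broth at ~2.5×10^5 CFU/ml, final compound 0.031–64 μg/ml, 18–24 h at 37 °C. MIC is the lowest concentration giving complete growth inhibition by background-corrected OD600 versus compound-free wells; duplicate or triplicate wells, replicated at least twice.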

[4] = system: MRSA MW2 (USA400); experiment: In vitro susceptibility, broth microdilution (MIC); format: cell-based, methicillin resistant S. aureus; conditions: Staphylococcus aureus; MRSA MW2 (USA400); read-out: Antimicrobial activity (MIC) MSRA USA400
Summary of the method: as §2

[5] = system: A. baumannii (ATCC 17978); experiment: In vitro susceptibility, broth microdilution (MIC); format: cell-based; conditions: Acinetobacter baumannii, ATCC17978; A. baumannii ATCC 17978 (values marked *); read-out: Antimicrobial activity (MIC) A. baumannii
Summary of the method: as §2

[6] = system: K. pneumoniae (C238); experiment: In vitro susceptibility, broth microdilution (MIC); format: cell-based; conditions: Klebsiella pneumoniae, read-out: Antimicrobial activity (MIC) K. pneumoniae
Summary of the method: as §1

[7] = system: VRE#2 (2010A); experiment: In vitro susceptibility, broth microdilution (MIC); format: cell-based, vancomycin resistant Enterococci; conditions: VRE#2 (2010A); read-out: Antimicrobial activity (MIC) VRE#2
Summary of the method: as §2

[8] = system: A. baumannii (ATCC 19606); experiment: In vitro susceptibility, broth microdilution (MIC); format: cell-based; conditions: Acinetobacter baumannii, ATCC19606; A. baumannii ATCC 19606 (values without asterisk); read-out: Antimicrobial activity (MIC) A. baumannii
Summary of the method: as §2

T1 sequence (Q6GG09 whole entry): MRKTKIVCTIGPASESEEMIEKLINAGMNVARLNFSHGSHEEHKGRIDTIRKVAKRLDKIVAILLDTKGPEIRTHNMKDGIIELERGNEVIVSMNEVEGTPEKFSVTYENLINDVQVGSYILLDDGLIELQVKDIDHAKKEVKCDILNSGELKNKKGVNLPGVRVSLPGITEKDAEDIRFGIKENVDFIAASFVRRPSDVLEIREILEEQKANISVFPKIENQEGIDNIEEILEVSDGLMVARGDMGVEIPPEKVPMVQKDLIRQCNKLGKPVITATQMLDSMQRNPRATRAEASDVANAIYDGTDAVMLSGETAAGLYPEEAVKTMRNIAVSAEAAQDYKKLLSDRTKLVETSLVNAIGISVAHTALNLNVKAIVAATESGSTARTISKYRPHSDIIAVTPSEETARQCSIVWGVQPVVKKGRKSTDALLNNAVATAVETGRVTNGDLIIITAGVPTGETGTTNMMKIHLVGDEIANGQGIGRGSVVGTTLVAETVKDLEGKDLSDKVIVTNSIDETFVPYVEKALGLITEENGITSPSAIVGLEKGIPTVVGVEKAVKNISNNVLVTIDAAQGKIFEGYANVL

Row | SMILES | pIC50 [1] | MIC [2] [µg/mL] | MIC [3] [µg/mL] | MIC [4] [µg/mL] | MIC [5] [µg/mL] | MIC ([6]; K. pneumoniae (C238)) [µg/mL] | MIC [7] [µg/mL] | MIC [8] [µg/mL] | MIC [6] [µg/mL]
1 | O=C(O)CCNC(=O)c1c(-c2cc3cc(Cl)ccc3[nH]2)[nH]c2cc(Br)ccc12 [Compound 205, 3-(6-Bromo-5′-chloro-1H,1′H-[2,2′-biindole]-3-carboxamido)propanoic Acid] | > 7.00 | 32 (≈ 69.5 µM) | 64 (≈ 139 µM) | 32 (≈ 69.5 µM) | > 64 | – | – | – | –
2 | CN(C)CCNC(=O)CCCC(=O)c1c(-c2cc3cc(Cl)ccc3[nH]2)[nH]c2cc(Br)ccc12 [Compound 107, 5-(6-bromo-5′-chloro-1H,1′H-[2,2′-biindol]-3-yl)-N-(2-(dimethylamino)ethyl)-5-oxopentanamide] | > 7.00 | 4 (≈ 7.55 µM) | – | 4 (≈ 7.55 µM) | – | 4 (≈ 7.55 µM) | 4 (≈ 7.55 µM) | – | –
3 | CC(C)c1nc2c(cc1-c1ccc(Cl)cc1)[nH]c1cc(Br)ccc12 [Compound 114, 7-bromo-3-(4-chlorophenyl)-2-isopropyl-5H-pyrido[3,2-b]indole] | 6.00 to 7.00 | 32 (≈ 80.1 µM) | – | 8 (≈ 20 µM) | – | 8 (≈ 20 µM) | 4 (≈ 10 µM) | – | –
4 | CNC(=O)C(=O)c1c(/C=C/c2ccc(Cl)cc2)[nH]c2cc(Br)ccc12 [Compound 87, (E)-2-(6-bromo-2-(4-chlorostyryl)-1H-indol-3-yl)-N-methyl-2-oxoacetamide] | > 7.00 | > 64 | – | > 64 | – | > 64 | > 64 | – | –
5 | O=C(CO)Nc1c(/C=C/c2ccc(Cl)cc2)[nH]c2cc(Br)ccc12 [Compound 95, (E)-N-(6-bromo-2-(4-chlorostyryl)-1H-indol-3-yl)-2-hydroxyacetamide] | 6.00 to 7.00 | 32 (≈ 78.9 µM) | – | 64 (≈ 158 µM) | – | 64 (≈ 158 µM) | 64 (≈ 158 µM) | – | –
6 | CN1CCN(CCCCNC(=O)c2c(/C=C/c3ccc(Cl)cc3)[nH]c3cc(Br)ccc23)CC1 [Compound 44, (E)-6-Bromo-2-(4-chlorostyryl)-N-(4-(4-methylpiperazin-1-yl)butyl)-1 H-indole-3-carboxamide] | 6.00 to 7.00 | 32 (≈ 60.4 µM) | – | 32 (≈ 60.4 µM) | – | 32 (≈ 60.4 µM) | 16 (≈ 30.2 µM) | – | –
7 | CN1CCN(CCNC(=O)CCCC(=O)c2c(-c3cc4cc(Cl)ccc4[nH]3)[nH]c3cc(Br)ccc23)CC1 [Compound 106, 5-(6-bromo-5′-chloro-1H,1′H-[2,2′-biindol]-3-yl)-N-(2-(4-methylpiperazin-1-yl)ethyl)-5-oxopentanamide] | > 7.00 | 8 (≈ 13.7 µM) | – | 8 (≈ 13.7 µM) | – | 8 (≈ 13.7 µM) | 8 (≈ 13.7 µM) | > 64 | –
8 | O=C(NCCC1CCC(O)CC1)c1c(/C=C/c2ccc(Cl)cc2)[nH]c2cc(Br)ccc12 (stereo not drawn) [Compound 41, (E)-6-Bromo-2-(4-chlorostyryl)-N-(2-(4-hydroxycyclohexyl)ethyl)-1H-indole-3-carboxamide] | > 7.00 | > 64 | – | > 64 | – | > 64 | > 64 | – | –
9 | COC(=O)C(=O)c1c(/C=C/c2ccc(Cl)cc2)[nH]c2cc(Br)ccc12 [Compound 86, (E)-Methyl 2-(6-bromo-2-(4-chlorostyryl)-1H-indol-3-yl)-2-oxoacetate] | > 7.00 | 64 (≈ 153 µM) | – | 64 (≈ 153 µM) | – | > 64 | 64 (≈ 153 µM) | – | –
10 | CC(=O)Nc1c(/C=C/c2ccc(Cl)cc2)[nH]c2cc(Br)ccc12 [Compound 94, (E)-N-(6-bromo-2-(4-chlorostyryl)-1H-indol-3-yl)acetamide] | 6.00 to 7.00 | 32 (≈ 82.1 µM) | – | > 64 | – | > 64 | > 64 | – | –
11 | O=S(=O)(Nc1nc2cc(Br)ccc2s1)c1ccc(Cl)cc1 [Compound 101, N-(5-bromobenzo[d]thiazol-2-yl)-4-chlorobenzenesulfonamide] | – | 8 (≈ 19.8 µM) | – | > 64 | – | 32 (≈ 79.3 µM) | – | – | –
12 | Clc1cc2nc(-c3cc4ccc(Br)cc4[nH]3)[nH]c2cc1Cl [Compound 207, 2-(6-Bromo-1H-indol-2-yl)-5,6-dichloro-1H-benzo[d]imidazole] | > 7.00 | 0.5 (≈ 1.31 µM) | – | 1 (≈ 2.62 µM) | – | 16 (≈ 42 µM) | 32 (≈ 84 µM) | > 64 | –
13 | Oc1cc(/C=C/c2cc3ccc(Br)cc3[nH]2)ccc1Cl [Compound 11, (E)-5-(2-(6-bromo-1H-indol-2-yl)vinyl)-2-chlorophenol] | – | 2 (≈ 5.74 µM) | – | 2 (≈ 5.74 µM) | > 64 | 4 (≈ 11.5 µM) | – | – | –
14 | O=C(O)CCCC(=O)c1c(-c2cc3cc(Cl)ccc3[nH]2)[nH]c2cc(-c3cc4cc(Cl)ccc4[nH]3)ccc12 [Compound 108, 5-(5,5″-dichloro-1H,1′H,1″H-[2,2′:6′,2″-terindol]-3′-yl)-5-oxopentanoic Acid] | < 6.00 | 1 (≈ 1.89 µM) | – | 2 (≈ 3.77 µM) | – | 2 (≈ 3.77 µM) | 2 (≈ 3.77 µM) | – | –
15 | CN(C)CCc1c(-c2cc3cc(Cl)ccc3[nH]2)[nH]c2cc(Br)ccc12 [Compound 77, 2-(6-Bromo-5′-chloro-1H,1′H-[2,2′-biindol]-3-yl)-N,N-dimethylethan-1-amine] | > 7.00 | 4 (≈ 9.6 µM) | – | 4 (≈ 9.6 µM) | – | – | – | – | 4 (≈ 9.6 µM)
16 | CC(=O)Nc1c(CCc2ccc(Cl)cc2)[nH]c2cc(Br)ccc12 [Compound 96, N-(6-Bromo-2-(4-chlorophenethyl)-1H-indol-3-yl)acetamide] | < 6.00 | 64 (≈ 163 µM) | – | > 64 | – | > 64 | > 64 | – | –
17 | CN(C)CCOc1cc(/C=C/c2cc3ccc(Br)cc3[nH]2)ccc1Cl [Compound 12, (E)-2-(5-(2-(6-bromo-1H-indol-2-yl)vinyl)-2-chlorophenoxy)-N,N-dimethylethanamine] | 6.00 to 7.00 | 4 (≈ 9.53 µM) | – | 4 (≈ 9.53 µM) | – | 4 (≈ 9.53 µM) | – | 16 (≈ 38.1 µM) | –
18 | O=C(Nc1c(/C=C/c2ccc(Cl)cc2)[nH]c2cc(Br)ccc12)C(F)(F)F [Compound 93, (E)-N-(6-bromo-2-(4-chlorostyryl)-1H-indol-3-yl)-2,2,2-trifluoroacetamide] | > 7.00 | 32 (≈ 72.1 µM) | – | > 64 | – | – | 64 (≈ 144 µM) | – | > 64
19 | CN(C)CCNC(=O)c1c(NC(=O)c2ccc(Cl)cc2)[nH]c2cc(Br)ccc12 [Compound 84, 6-Bromo-2-(4-chlorobenzamido)-N-(2-(dimethylamino)ethyl)-1H-indole-3-carboxamide] | – | 64 (≈ 138 µM) | – | > 64 | – | 16 (≈ 34.5 µM) | – | – | –
20 | CN1CCN(CCCNC(=O)c2c(/C=C/c3ccc(Cl)cc3)[nH]c3cc(Br)ccc23)CC1 [Compound 43, (E)-6-Bromo-2-(4-chlorostyryl)-N-(3-(4-methylpiperazin-1-yl)propyl)-1 H-indole-3-carboxamide] | > 7.00 | 32 (≈ 62 µM) | – | 32 (≈ 62 µM) | – | 32 (≈ 62 µM) | 16 (≈ 31 µM) | – | –
